From patent US9266878B2, “Phosphatidylinositol 3-kinase inhibitors” (Gilead Calistoga LLC, priority 2012, dated 2016)

Experiments:
Test in all cases: Enzymatic activity of PI3K isoforms, TR-FRET assay (PIP3 formation)
Assay type in all cases: biochemical
PI3Kα = PI3Kα (Homo sapiens (Human), UniProt P42336); details: bound given in uM
Method: (§1) Enzymatic activity of the class I PI3K isoforms was measured using a time-resolved fluorescence resonance energy transfer (TR-FRET) assay that monitors formation of the product 3,4,5-inositol triphosphate molecule (PIP3), as it competes with fluorescently labeled PIP3 for binding to the GRP-1 pleckstrin homology domain protein. An increase in […] product results in a decrease in TR-FRET signal as the labeled fluorophore is displaced from the GRP-1 protein binding site.
(§2) Class I PI3K isoforms were expressed and purified as heterodimeric recombinant proteins. All assay reagents and buffers for the TR-FRET assay were purchased from Millipore. […] After an assay reaction time of 30 minutes at 25° C., reactions were terminated with a final concentration of 10 mM EDTA, 10 nM labeled-PIP3, and 35 nM Europium labeled GRP-1 detector protein before reading TR-FRET on an Envision plate reader (Ex: 340 nm; Em: 615/665 nm; 100 μs delay and 500 μs read window).
(§3) IC50 are reported in units of nM. These assays generally produced results within 3-fold of the reported mean.

PI3Kδ = PI3Kδ (Homo sapiens (Human), UniProt O00329); details: bound given in nM
Chain of PI3Kδ (O00329 whole entry): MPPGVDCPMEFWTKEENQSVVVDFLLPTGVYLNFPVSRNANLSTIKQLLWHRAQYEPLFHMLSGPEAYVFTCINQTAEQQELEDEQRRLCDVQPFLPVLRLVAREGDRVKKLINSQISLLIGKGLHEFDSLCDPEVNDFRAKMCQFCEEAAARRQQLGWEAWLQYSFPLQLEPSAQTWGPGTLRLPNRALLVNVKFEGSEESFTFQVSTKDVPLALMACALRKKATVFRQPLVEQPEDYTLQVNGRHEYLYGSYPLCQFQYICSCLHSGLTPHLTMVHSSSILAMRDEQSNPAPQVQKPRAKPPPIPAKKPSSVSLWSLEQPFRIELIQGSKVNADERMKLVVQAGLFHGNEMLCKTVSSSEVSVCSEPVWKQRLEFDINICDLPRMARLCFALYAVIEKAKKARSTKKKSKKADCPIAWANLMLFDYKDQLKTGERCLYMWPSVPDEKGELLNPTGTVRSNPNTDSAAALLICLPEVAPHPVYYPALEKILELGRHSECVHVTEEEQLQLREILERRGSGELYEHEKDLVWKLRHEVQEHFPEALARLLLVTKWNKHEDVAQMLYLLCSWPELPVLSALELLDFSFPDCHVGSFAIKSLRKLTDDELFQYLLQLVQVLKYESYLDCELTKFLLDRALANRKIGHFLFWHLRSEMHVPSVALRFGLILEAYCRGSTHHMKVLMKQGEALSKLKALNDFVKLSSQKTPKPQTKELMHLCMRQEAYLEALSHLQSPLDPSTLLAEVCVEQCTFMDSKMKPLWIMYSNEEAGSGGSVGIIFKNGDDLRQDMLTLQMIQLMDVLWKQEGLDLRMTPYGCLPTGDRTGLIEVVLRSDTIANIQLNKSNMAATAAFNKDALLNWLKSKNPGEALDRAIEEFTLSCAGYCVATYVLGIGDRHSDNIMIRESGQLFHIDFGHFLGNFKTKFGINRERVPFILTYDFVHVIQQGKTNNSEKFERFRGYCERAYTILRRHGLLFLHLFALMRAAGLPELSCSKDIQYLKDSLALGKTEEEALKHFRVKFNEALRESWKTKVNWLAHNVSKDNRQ
Chain of PI3Kδ (P27986 whole entry partner): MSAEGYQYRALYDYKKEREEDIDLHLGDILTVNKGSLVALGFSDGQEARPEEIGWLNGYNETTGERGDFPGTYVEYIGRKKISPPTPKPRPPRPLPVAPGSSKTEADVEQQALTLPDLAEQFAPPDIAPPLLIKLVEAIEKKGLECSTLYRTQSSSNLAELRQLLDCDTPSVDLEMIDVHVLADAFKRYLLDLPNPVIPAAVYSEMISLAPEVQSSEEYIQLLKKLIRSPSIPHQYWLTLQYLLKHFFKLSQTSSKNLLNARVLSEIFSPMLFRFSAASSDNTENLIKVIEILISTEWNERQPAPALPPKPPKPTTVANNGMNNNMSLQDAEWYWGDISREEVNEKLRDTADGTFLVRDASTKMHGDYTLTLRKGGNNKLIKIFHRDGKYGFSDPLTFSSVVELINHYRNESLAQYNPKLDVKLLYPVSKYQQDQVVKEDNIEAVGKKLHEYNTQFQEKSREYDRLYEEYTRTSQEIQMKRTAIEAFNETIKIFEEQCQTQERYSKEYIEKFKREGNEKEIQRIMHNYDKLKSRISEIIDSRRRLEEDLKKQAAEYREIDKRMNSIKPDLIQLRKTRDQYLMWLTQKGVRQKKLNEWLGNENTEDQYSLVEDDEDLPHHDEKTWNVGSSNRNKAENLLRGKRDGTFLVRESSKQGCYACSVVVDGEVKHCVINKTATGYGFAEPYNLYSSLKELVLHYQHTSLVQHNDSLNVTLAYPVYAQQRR
Method: as §1, §2, §3

PI3Kβ = PI3Kβ (Homo sapiens (Human), UniProt P42338)
Chain of PI3Kβ (P42338 whole entry): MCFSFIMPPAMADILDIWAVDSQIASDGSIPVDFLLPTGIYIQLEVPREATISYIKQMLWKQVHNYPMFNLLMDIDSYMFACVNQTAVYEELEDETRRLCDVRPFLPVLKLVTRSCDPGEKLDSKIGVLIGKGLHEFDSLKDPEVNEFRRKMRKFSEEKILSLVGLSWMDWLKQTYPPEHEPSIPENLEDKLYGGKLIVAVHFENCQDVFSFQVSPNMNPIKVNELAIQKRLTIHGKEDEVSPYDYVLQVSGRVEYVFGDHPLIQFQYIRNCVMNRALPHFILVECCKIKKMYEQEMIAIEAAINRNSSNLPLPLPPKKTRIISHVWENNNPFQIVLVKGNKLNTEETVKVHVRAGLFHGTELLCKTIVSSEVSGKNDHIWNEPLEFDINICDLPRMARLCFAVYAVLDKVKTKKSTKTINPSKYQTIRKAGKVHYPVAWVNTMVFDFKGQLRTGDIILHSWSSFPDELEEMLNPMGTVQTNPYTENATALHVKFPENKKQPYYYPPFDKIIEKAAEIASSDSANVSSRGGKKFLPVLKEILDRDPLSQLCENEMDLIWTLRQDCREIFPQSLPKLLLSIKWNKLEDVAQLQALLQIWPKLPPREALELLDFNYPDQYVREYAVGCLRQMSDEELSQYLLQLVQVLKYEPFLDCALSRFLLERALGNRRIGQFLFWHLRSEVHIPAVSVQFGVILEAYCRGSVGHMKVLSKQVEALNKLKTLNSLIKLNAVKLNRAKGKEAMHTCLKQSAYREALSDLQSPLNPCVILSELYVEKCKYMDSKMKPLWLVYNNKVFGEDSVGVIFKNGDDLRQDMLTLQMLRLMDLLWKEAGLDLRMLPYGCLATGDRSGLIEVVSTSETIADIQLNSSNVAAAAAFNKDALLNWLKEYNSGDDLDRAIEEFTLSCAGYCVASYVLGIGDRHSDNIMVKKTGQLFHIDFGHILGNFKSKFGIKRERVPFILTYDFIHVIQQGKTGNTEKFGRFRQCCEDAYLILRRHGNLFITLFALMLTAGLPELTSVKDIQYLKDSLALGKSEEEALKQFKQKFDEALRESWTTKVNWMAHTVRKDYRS
Chain of PI3Kβ (P27986 whole entry partner): as the sequence (P27986 whole entry partner) above
Method: as §1
(§4) Class I PI3K isoforms were expressed and purified as heterodimeric recombinant proteins. All assay reagents and buffers for the TR-FRET assay were purchased from Millipore.
(§5) IC50 are reported in units of nM.

PI3Kγ = PI3Kγ (Homo sapiens (Human), UniProt P48736)
Method: as §1, §4, §5

Chain of PI3Kα (P42336 whole entry, the tested form may be a part, canonical isoform): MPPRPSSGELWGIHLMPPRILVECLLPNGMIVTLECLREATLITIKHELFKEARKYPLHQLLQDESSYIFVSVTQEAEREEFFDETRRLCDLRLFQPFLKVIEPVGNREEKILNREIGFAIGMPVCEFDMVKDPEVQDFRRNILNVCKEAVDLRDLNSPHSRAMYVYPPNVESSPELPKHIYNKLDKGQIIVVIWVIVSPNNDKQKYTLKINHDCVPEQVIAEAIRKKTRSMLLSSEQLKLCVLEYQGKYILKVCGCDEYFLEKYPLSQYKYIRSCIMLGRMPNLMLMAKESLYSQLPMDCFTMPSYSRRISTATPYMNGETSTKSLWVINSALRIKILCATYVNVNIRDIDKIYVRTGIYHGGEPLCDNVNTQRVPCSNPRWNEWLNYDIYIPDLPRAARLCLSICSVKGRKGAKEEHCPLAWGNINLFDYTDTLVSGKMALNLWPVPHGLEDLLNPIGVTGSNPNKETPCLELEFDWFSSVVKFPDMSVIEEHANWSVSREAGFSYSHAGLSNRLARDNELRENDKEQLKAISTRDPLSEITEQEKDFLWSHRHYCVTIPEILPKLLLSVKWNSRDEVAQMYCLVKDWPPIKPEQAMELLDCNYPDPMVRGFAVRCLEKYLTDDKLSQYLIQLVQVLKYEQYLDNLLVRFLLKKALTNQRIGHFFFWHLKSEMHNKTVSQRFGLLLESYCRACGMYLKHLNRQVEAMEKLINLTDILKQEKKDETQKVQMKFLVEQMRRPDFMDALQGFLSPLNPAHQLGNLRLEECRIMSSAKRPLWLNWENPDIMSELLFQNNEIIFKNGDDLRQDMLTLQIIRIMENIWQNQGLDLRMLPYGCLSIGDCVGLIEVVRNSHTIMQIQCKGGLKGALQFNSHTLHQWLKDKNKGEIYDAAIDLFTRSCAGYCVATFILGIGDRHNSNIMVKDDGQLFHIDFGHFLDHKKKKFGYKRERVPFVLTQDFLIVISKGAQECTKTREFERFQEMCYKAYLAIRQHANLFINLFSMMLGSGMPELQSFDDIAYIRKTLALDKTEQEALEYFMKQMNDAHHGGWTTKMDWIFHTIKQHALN
Chain of PI3Kα (P27986 whole entry partner, the tested form may be a part, canonical isoform): as the sequence (P27986 whole entry partner) above

SMILES | IC50 (PI3Kα) | IC50 (PI3Kδ) | IC50 (PI3Kβ; bound given in uM) | IC50 (PI3Kβ; bound given in nM) | IC50 (PI3Kγ; bound given in nM) | IC50 (PI3Kγ; bound given in uM)
C[C@H](Nc1ncnc(N)c1C#Cc1cnccn1)c1nc2cccc(Cl)c2c(=O)n1-c1ccccc1 [Compound 16a, (S)-2-(1-(6-amino-5-(pyrazin-2-ylethynyl)pyrimidin-4-ylamino)ethyl)-5-chloro-3-phenylquinazolin-4(3H)-one] | > 1 µM | < 100 nM |  | < 0.1 µM |  | 
Cc1cccc2nc([C@H](C)Nc3ncnc(N)c3C#Cc3ccccn3)n(-c3ccccc3)c(=O)c12 [Compound 30a, (S)-2-(1-(6-amino-5-(pyridin-2-ylethynyl)pyrimidin-4-ylamino)ethyl)-5-methyl-3-phenylquinazolin-4(3H)-one] |  | < 100 nM |  | < 0.1 µM |  | 
C[C@H](Nc1ncnc(N)c1C#Cc1cncnc1)c1nc2cccc(Cl)c2c(=O)n1-c1ccccc1 [Compound 42a, (S)-2-(1-(6-amino-5-(pyrimidin-5-ylethynyl)pyrimidin-4-ylamino)ethyl)-5-chloro-3-phenylquinazolin-4(3H)-one] | > 1 µM | < 100 nM | > 1 µM |  |  | 
C[C@H](Nc1ncnc(N)c1C#Cc1cccnc1)c1nc2cccc(Cl)c2c(=O)n1-c1cc(F)cc(F)c1 [Compound 43a, (S)-2-(1-(6-amino-5-(pyridin-3-ylethynyl)pyrimidin-4-ylamino)ethyl)-5-chloro-3-(3,5-difluorophenyl)quinazolin-4(3H)-one] | > 1 µM | < 100 nM | > 1 µM |  |  | 
C[C@H](Nc1ncnc(N)c1C#Cc1ccccn1)c1nc2cccc(Cl)c2c(=O)n1-c1ccccc1 [Compound 50a, (S)-2-(1-(6-amino-5-(pyridin-2-ylethynyl)pyrimidin-4-ylamino)ethyl)-5-chloro-3-phenylquinazolin-4(3H)-one] |  | < 100 nM |  | < 0.1 µM |  | 
Cc1ccc(F)c2nc([C@H](C)Nc3ncnc(N)c3C#Cc3cnccn3)n(-c3ccccc3)c(=O)c12 [Compound 75a, (S)-2-(1-((6-amino-5-(pyrazin-2-ylethynyl)pyrimidin-4-yl)amino)ethyl)-8-fluoro-5-methyl-3-phenylquinazolin-4(3H)-one] |  | < 100 nM |  | < 0.1 µM |  | 
C[C@H](Nc1nc(N)nc(N)c1C#Cc1ccc(F)cn1)c1nc2cccc(Cl)c2c(=O)n1-c1cc(F)cc(F)c1 [Compound 78a, (S)-5-chloro-2-(1-((2,6-diamino-5-((5-fluoropyridin-2-yl)ethynyl)pyrimidin-4-yl)amino)ethyl)-3-(3,5-difluorophenyl)quinazolin-4(3H)-one] | > 1 µM | < 100 nM | > 1 µM |  |  | 
C[C@H](Nc1ncnc(N)c1C#Cc1ccc(F)cn1)c1nc2c(F)ccc(Cl)c2c(=O)n1-c1cc(F)cc(F)c1 [Compound 84a, (S)-2-(1-((6-amino-5-((5-fluoropyridin-2-yl)ethynyl)pyrimidin-4-yl)amino)ethyl)-5-chloro-3-(3,5-difluorophenyl)-8-fluoroquinazolin-4(3H)-one] | > 1 µM | < 100 nM | > 1 µM |  |  | 
Cc1cccc2nc([C@H](C)Nc3ncnc(N)c3C#Cc3cnccn3)n(-c3ccccc3)c(=O)c12 [Compound 98a, (S)-2-(1-((6-amino-5-(pyrazin-2-ylethynyl)pyrimidin-4-yl)amino)ethyl)-5-methyl-3-phenylquinazolin-4(3H)-one] |  | < 100 nM |  | < 0.1 µM |  | 
C[C@H](Nc1ncnc(N)c1C#Cc1ccccc1)c1nc2cccc(S(C)(=O)=O)c2c(=O)n1-c1ccccc1 [Compound 112a, (S)-2-(1-((6-amino-5-(phenylethynyl)pyrimidin-4-yl)amino)ethyl)-5-(methylsulfonyl)-3-phenylquinazolin-4(3H)-one] |  | < 100 nM | > 1 µM |  |  | 
Cc1ccnc(C#Cc2c(N)ncnc2N[C@@H](C)c2nc3cccc(Cl)c3c(=O)n2-c2ccccc2)c1 [Compound 147a, (S)-2-(1-((6-amino-5-((4-methylpyridin-2-yl)ethynyl)pyrimidin-4-yl)amino)ethyl)-5-chloro-3-phenylquinazolin-4(3H)-one] |  | < 100 nM |  | < 0.1 µM |  | 
CCc1ccnc(C#Cc2c(N)ncnc2N[C@@H](C)c2nc3cccc(Cl)c3c(=O)n2-c2ccccc2)c1 [Compound 150a, (S)-2-(1-((6-amino-5-((4-ethylpyridin-2-yl)ethynyl)pyrimidin-4-yl)amino)ethyl)-5-chloro-3-phenylquinazolin-4(3H)-one] | > 1 µM | < 100 nM |  |  | < 100 nM | 
C[C@H](Nc1ncnc(N)c1C#Cc1cc(C(N)=O)ccn1)c1nc2cccc(Cl)c2c(=O)n1-c1ccccc1 [Compound 156a, (S)-2-((4-amino-6-((1-(5-chloro-4-oxo-3-phenyl-3,4-dihydroquinazolin-2-yl)ethyl)amino)pyrimidin-5-yl)ethynyl)isonicotinamide] |  | < 100 nM |  | < 0.1 µM |  | 
COC(=O)c1ccnc(C#Cc2c(N)ncnc2N[C@@H](C)c2nc3cccc(Cl)c3c(=O)n2-c2ccccc2)c1 [Compound 158a, (S)-methyl 2-((4-amino-6-((1-(5-chloro-4-oxo-3-phenyl-3,4-dihydroquinazolin-2-yl)ethyl)amino)pyrimidin-5-yl)ethynyl)isonicotinate] | > 1 µM | < 100 nM |  |  |  | > 1000 nM

Other lines, results leading:

IC50 (PI3Kα) | IC50 (PI3Kδ) | IC50 (PI3Kβ; bound given in uM) | IC50 (PI3Kβ; bound given in nM) | IC50 (PI3Kγ; bound given in nM) | IC50 (PI3Kγ; bound given in uM) | SMILES
> 1 µM | < 100 nM | > 1 µM |  |  |  | COC(=O)c1ccc(C#Cc2c(N)ncnc2N[C@@H](C)c2nc3cccc(Cl)c3c(=O)n2-c2ccccc2)nc1 [Compound 3a, (S)-methyl 6-((4-amino-6-(1-(5-chloro-4-oxo-3-phenyl-3,4-dihydroquinazolin-2-yl)ethylamino)pyrimidin-5-yl)ethynyl)nicotinate]
 | < 100 nM |  | < 0.1 µM |  |  | C[C@H](Nc1ncnc(N)c1C#Cc1cccc(N)n1)c1nc2cccc(Cl)c2c(=O)n1-c1cc(F)cc(F)c1 [Compound 15a, (S)-2-(1-(6-amino-5-((6-aminopyridin-2-yl)ethynyl)pyrimidin-4-ylamino)ethyl)-5-chloro-3-(3,5-difluorophenyl)quinazolin-4(3H)-one]
> 1 µM | < 100 nM | > 1 µM |  |  |  | C[C@H](Nc1ncnc(N)c1C#Cc1ccc(OC(F)(F)F)cc1)c1nc2cccc(Cl)c2c(=O)n1-c1ccccc1 [Compound 27a, (S)-2-(1-(6-amino-5-((4-(trifluoromethoxy)phenyl)ethynyl)pyrimidin-4-ylamino)ethyl)-5-chloro-3-phenylquinazolin-4(3H)-one]
> 1 µM | < 100 nM | > 1 µM |  |  |  | C[C@H](Nc1ncnc(N)c1C#Cc1ccc(F)cn1)c1nc2cccc(C(F)F)c2c(=O)n1-c1ccccc1 [Compound 67a, (S)-2-(1-((6-amino-5-((5-fluoropyridin-2-yl)ethynyl)pyrimidin-4-yl)amino)ethyl)-5-(difluoromethyl)-3-phenylquinazolin-4(3H)-one]
> 1 µM | < 100 nM | > 1 µM |  |  |  | C[C@H](Nc1nc(N)nc(N)c1C#Cc1ccc(F)cn1)c1nc2cccc(Cl)c2c(=O)n1-c1ccccc1 [Compound 83a, (S)-5-chloro-2-(1-((2,6-diamino-5-((5-fluoropyridin-2-yl)ethynyl)pyrimidin-4-yl)amino)ethyl)-3-phenylquinazolin-4(3H)-one]
> 1 µM |  | > 1 µM |  |  |  | C[C@H](Nc1ncnc(N)c1C#Cc1ccc(C(F)(F)F)cn1)c1nc2cccc(Cl)c2c(=O)n1-c1cc(F)cc(F)c1 [Compound 134a, (S)-2-(1-((6-amino-5-((5-(trifluoromethyl)pyridin-2-yl)ethynyl)pyrimidin-4-yl)amino)ethyl)-5-chloro-3-(3,5-difluorophenyl)quinazolin-4(3H)-one]
> 1 µM | < 100 nM | > 1 µM |  |  |  | C[C@H](Nc1ncnc(N)c1C#Cc1ccc(C(N)=O)cn1)c1nc2cccc(Cl)c2c(=O)n1-c1cc(F)cc(F)c1 [Compound 136a, (S)-6-((4-amino-6-((1-(5-chloro-3-(3,5-difluorophenyl)-4-oxo-3,4-dihydroquinazolin-2-yl)ethyl)amino)pyrimidin-5-yl)ethynyl)nicotinamide]
> 1 µM | < 100 nM |  | < 0.1 µM |  |  | Cc1cccc(C#Cc2c(N)ncnc2N[C@@H](C)c2nc3cccc(Cl)c3c(=O)n2-c2ccccc2)n1 [Compound 141a, (S)-2-(1-((6-amino-5-((6-methylpyridin-2-yl)ethynyl)pyrimidin-4-yl)amino)ethyl)-5-chloro-3-phenylquinazolin-4(3H)-one]
> 1 µM | < 100 nM |  |  |  | > 1000 nM | CC(=O)c1cccnc1C#Cc1c(N)ncnc1N[C@@H](C)c1nc2cccc(Cl)c2c(=O)n1-c1ccccc1 [Compound 152a, (S)-2-(1-((5-((3-acetylpyridin-2-yl)ethynyl)-6-aminopyrimidin-4-yl)amino)ethyl)-5-chloro-3-phenylquinazolin-4(3H)-one]
> 1 µM | < 100 nM |  |  |  | > 1000 nM | C[C@H](Nc1ncnc(N)c1C#Cc1cccc(CO)c1)c1nc2cccc(Cl)c2c(=O)n1-c1ccccc1 [Compound 162a, (S)-2-(1-((6-amino-5-((3-(hydroxymethyl)phenyl)ethynyl)pyrimidin-4-yl)amino)ethyl)-5-chloro-3-phenylquinazolin-4(3H)-one]
